Measurements from article PMC11009388, “Insights into the molecular mechanism of yellow cuticle coloration by a chitin-binding carotenoprotein in gregarious locusts” (Communications Biology, 2024).
Several values for one entry are separate records, joined by “and”; a condition that tells them apart may be missing. Equal values may be shown once.

Columns and labels:
[1] = molecular target: T1, BBP (β-carotene-binding protein), recombinant (Schistocerca gregaria, UniProt A0A6N3ISN1); experiment: HPLC of carotenoids bound to purified protein; conditions: late induction in ECH/CAN-producing E. coli; competing with β-carotene in membranes
T1 construct: gene YPT; mature form residues 23-273, signal peptide removed; N-terminal His6 tag cleaved by 3C leaving GSHM; E. coli C41(DE3) making carotenoids
T1 sequence (A0A6N3ISN1 23-273): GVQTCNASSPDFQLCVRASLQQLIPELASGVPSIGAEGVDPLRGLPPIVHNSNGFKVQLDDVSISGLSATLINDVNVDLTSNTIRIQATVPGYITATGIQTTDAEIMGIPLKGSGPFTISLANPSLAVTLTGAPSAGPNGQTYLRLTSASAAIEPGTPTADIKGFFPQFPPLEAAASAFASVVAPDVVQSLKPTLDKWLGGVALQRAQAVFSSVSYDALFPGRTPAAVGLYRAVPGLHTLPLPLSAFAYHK

[2] = molecular target: T2, BmCBP (Bombyx mori, UniProt Q8MYA9); experiment: induced UV/Vis circular dichroism, absorbance spectrum, SECmelt; type: binding; conditions: 20 mM phosphate pH 7.2 (CD); sample has excess apoform
T2 construct: residues 68-297 (START domain), His-tag cleaved, preparation from previous work
T2 sequence (Q8MYA9 68-297): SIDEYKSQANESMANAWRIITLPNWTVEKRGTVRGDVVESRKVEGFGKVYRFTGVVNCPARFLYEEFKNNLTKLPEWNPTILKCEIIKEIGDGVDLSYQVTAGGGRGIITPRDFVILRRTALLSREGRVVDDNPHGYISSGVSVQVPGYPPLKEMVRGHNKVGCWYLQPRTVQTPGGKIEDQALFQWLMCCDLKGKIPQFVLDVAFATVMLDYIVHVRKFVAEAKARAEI

[3] = molecular target: T1, BBP (β-carotene-binding protein), recombinant; experiment: HPLC of bound carotenoid, absorbance, CD and Raman spectra, SEC of holoprotein; conditions: reconstituted in β-carotene-producing E. coli; 20 mM Tris-HCl pH 7.5, 150 mM NaCl
[4] = molecular target: native BBP extracted from the yellow locust cuticle (Schistocerca gregaria (endogenous in locust cuticle)); experiment: SEC; clarified soluble extract of yellow locust cuticle on Superdex 200 Increase 5/150, 0.45 mL/min; 20 mM Tris-HCl pH 7.5, 150 mM NaCl, 3 mM βME, 0.5 mM PMSF; apparent Mw from column calibration
[5] = molecular target: recombinant β-carotene-binding protein from Schistocerca gregaria in complex with β-carotene, BBP(βCar) (Schistocerca gregaria); experiment: SEC; spectrochromatography on Superdex 200 Increase 5/150, 0.45 mL/min; 20 mM Tris-HCl pH 7.5, 150 mM NaCl, 3 mM βME, also with 2 M urea or 0.05% DOC, or 10 mM MES pH 6.0, 150 mM NaCl; apparent Mw from column calibration
[6] = molecular target: recombinant β-carotene-binding protein from Schistocerca gregaria in complex with β-carotene, BBP(βCar) (Schistocerca gregaria); experiment: SEC-MALS; Superdex 200 Increase 10/300, 20 mM Tris pH 7.5, 150 mM NaCl, 3 mM βME, 0.8 mL/min; self-association of BBP(βCar)
[7] = molecular target: recombinant β-carotene-binding protein from Schistocerca gregaria in complex with β-carotene, BBP(βCar) (Schistocerca gregaria); experiment: cross-linking; glutaraldehyde 0.23%, 15 min at 30 °C, 20 mM HEPES pH 7.5, 150 mM NaCl; analysed by SDS-PAGE

CC1=C(/C=C/C(C)=C/C=C/C(C)=C/C=C/C=C(C)/C=C/C=C(C)/C=C/C2=C(C)C(=O)CCC2(C)C)C(C)(C)CCC1=O [CAN, canthaxanthin]
HPLC of carotenoids bound to purified protein [1]: also exhibits capacity to bind ECH and, less efficiently, CAN

CC1=C(/C=C/C(C)=C/C=C/C(C)=C/C=C/C=C(C)/C=C/C=C(C)/C=C/C2=C(C)C(=O)CCC2(C)C)C(C)(C)CCC1 [ECH, echinenone]
HPLC of carotenoids bound to purified protein [1]: BBP avidly binds β-carotene but also exhibits capacity to bind ECH

CC1=C(/C=C/C(C)=C/C=C/C(C)=C/C=C/C=C(C)/C=C/C=C(C)/C=C/C2=C(C)C[C@@H](O)CC2(C)C)C(C)(C)C[C@H](O)C1 [ZEA, zeaxanthin]
induced UV/Vis circular dichroism, absorbance spectrum, SECmelt [2]: UV/Vis circular dichroism spectrum was distinctly different from that of the BmCBP complex with ZEA

CC1=C(/C=C/C(C)=C/C=C/C(C)=C/C=C/C=C(C)/C=C/C=C(C)/C=C/C2=C(C)CCCC2(C)C)C(C)(C)CCC1 [βCar, β-carotene]
HPLC of bound carotenoid, absorbance, CD and Raman spectra, SEC of holoprotein [3]: recombinant BBP, like native BBP from locusts, indeed contains almost exclusively β-carotene

native BBP extracted from the yellow locust cuticle (natural protein)
stoichiometry N [4]: 2

recombinant β-carotene-binding protein from Schistocerca gregaria in complex with β-carotene, BBP(βCar) (from UniProt A0A6N3ISN1 23-273) (natural protein)
stoichiometry N [5]: 2 and 4
stoichiometry N [6]: 2
stoichiometry N [7]: 4 and 2
